Assay results reported in ChEMBL document CHEMBL3885881, “DrugMatrix”.

Species: Rattus norvegicus
Experiment: DrugMatrix - Regimen: Daily Repeat
Assay type: toxicity, organism-based, Sprague-Dawley
Parameters: regimen Daily Repeat, gender Male, age 6-8 weeks
Conditions: in vivo, po, route oral GAVAGE, vehicle 100 % WATER; for ABSOLUTE BASOPHIL / ABSOLUTE EOSINOPHIL / ABSOLUTE LYMPHOCYTE / ABSOLUTE MONOCYTE / ABSOLUTE SEGMENTED NEUTROPHIL / BASOPHIL / EOSINOPHIL / ERYTHROCYTE COUNT / HEMATOCRIT / HEMOGLOBIN / LEUKOCYTE COUNT / LYMPHOCYTE / MEAN CORPUSCULAR HEMOGLOBIN / MEAN CORPUSCULAR HEMOGLOBIN CONCENTRATION / MEAN CORPUSCULAR VOLUME / MONOCYTE / NEUTROPHIL / NUCLEATED RED BLOOD CELLS / PLATELET COUNT: tissue Blood; for ALANINE AMINOTRANSFERASE / ALBUMIN / ALKALINE PHOSPHATASE / ASPARTATE AMINOTRANSFERASE / BLOOD UREA NITROGEN / CARBON DIOXIDE / CHLORIDE / CHOLESTEROL / CREATINE PHOSPHOKINASE / CREATININE / GLUCOSE / LACTATE DEHYDROGENASE / LIPASE / PHOSPHORUS / POTASSIUM / SODIUM / TOTAL BILIRUBIN / TOTAL PROTEIN / URIC ACID: tissue Plasma
[1] = 0 mg/kg, 72 h, dose level Control, time 3 day
[2] = 0 mg/kg, 120 h, dose level Control, time 5 day
[3] = 50 mg/kg, 72 h, dose level Low, time 3 day
[4] = 50 mg/kg, 120 h, dose level Low, time 5 day

For `CC[C@H]1OC(=O)[C@H](C)[C@@H](O[C@H]2C[C@@](C)(OC)[C@@H](O)[C@H](C)O2)[C@H](C)[C@@H](O[C@@H]2O[C@H](C)C[C@H](N(C)C)[C@H]2O)[C@](C)(O)C[C@@H](C)CN(C)[C@H](C)[C@@H](O)[C@]1(C)O` [AZITHROMYCIN], the “ABSOLUTE BASOPHIL” value [1] was 0 CELLS/uL, the “ABSOLUTE EOSINOPHIL” value [1] was 33.67 CELLS/uL and the “ABSOLUTE LYMPHOCYTE” value [1] was 11257.17 CELLS/uL. The “ABSOLUTE MONOCYTE” value [1] was 72.17 CELLS/uL, the “ABSOLUTE SEGMENTED NEUTROPHIL” value [1] was 1220.33 CELLS/uL and the BASOPHIL [1] was 0%. The EOSINOPHIL [1] was 0.33%, the “ERYTHROCYTE COUNT” value [1] was 5 x10E6/uL and the HEMATOCRIT [1] was 32.62%. For the same compound, the HEMOGLOBIN [1] was 12.83 G/DL, the “LEUKOCYTE COUNT” value [1] was 12.58 x10E3/uL and the LYMPHOCYTE [1] was 89%. The “MEAN CORPUSCULAR HEMOGLOBIN” value [1] was 25.67 pg, the “MEAN CORPUSCULAR HEMOGLOBIN CONCENTRATION” value [1] was 39.35 G/DL and the “MEAN CORPUSCULAR VOLUME” value [1] was 65.23 fL. The MONOCYTE [1] was 0.67%, the NEUTROPHIL [1] was 10% and the “NUCLEATED RED BLOOD CELLS” value [1] was 0 /100WBC. For the same compound, the “PLATELET COUNT” value [1] was 1162.5 x10E3/uL, the “ALANINE AMINOTRANSFERASE” value [1] was 45.33 u/L and the ALBUMIN [1] was 3.95 G/DL. For the same compound, the “ALKALINE PHOSPHATASE” value [1] was 356.17 u/L, the “ASPARTATE AMINOTRANSFERASE” value [1] was 81 u/L and the “BLOOD UREA NITROGEN” value [1] was 11 mg/dL. The “CARBON DIOXIDE” value [1] was 29.83 mmol/L, the CHLORIDE [1] was 97.8 MEQ/L and the CHOLESTEROL [1] was 65.17 mg/dL. The “CREATINE PHOSPHOKINASE” value [1] was 211.33 u/L, the CREATININE [1] was 0.11 mg/dL and the GLUCOSE [1] was 164.67 mg/dL. The “LACTATE DEHYDROGENASE” value [1] was 143.17 u/L, the LIPASE [1] was 10.17 u/L and the PHOSPHORUS [1] was 10.88 mg/dL. For the same compound, the POTASSIUM [1] was 6.08 MEQ/L, the SODIUM [1] was 141.54 MEQ/L and the “TOTAL BILIRUBIN” value [1] was 0.23 mg/dL. For the same compound, the “TOTAL PROTEIN” value [1] was 5.65 G/DL, the “URIC ACID” value [1] was 1 mg/dL and the “ABSOLUTE BASOPHIL” value [2] was 0 CELLS/uL. For the same compound, the “ABSOLUTE EOSINOPHIL” value [2] was 48.67 CELLS/uL, the “ABSOLUTE LYMPHOCYTE” value [2] was 9267.83 CELLS/uL and the “ABSOLUTE MONOCYTE” value [2] was 194.33 CELLS/uL. The “ABSOLUTE SEGMENTED NEUTROPHIL” value [2] was 572.5 CELLS/uL, the BASOPHIL [2] was 0% and the EOSINOPHIL [2] was 0.33%. For the same compound, the “ERYTHROCYTE COUNT” value [2] was 5.41 x10E6/uL, the HEMATOCRIT [2] was 36.17% and the HEMOGLOBIN [2] was 13.9 G/DL. The “LEUKOCYTE COUNT” value [2] was 10.08 x10E3/uL, the LYMPHOCYTE [2] was 92.17% and the “MEAN CORPUSCULAR HEMOGLOBIN” value [2] was 25.73 pg. The “MEAN CORPUSCULAR HEMOGLOBIN CONCENTRATION” value [2] was 38.45 G/DL, the “MEAN CORPUSCULAR VOLUME” value [2] was 66.97 fL and the MONOCYTE [2] was 1.83%. For the same compound, the NEUTROPHIL [2] was 5.67%, the “NUCLEATED RED BLOOD CELLS” value [2] was 0.33 /100WBC and the “PLATELET COUNT” value [2] was 1122.33 x10E3/uL. The “ALANINE AMINOTRANSFERASE” value [2] was 52.83 u/L, the ALBUMIN [2] was 4.12 G/DL and the “ALKALINE PHOSPHATASE” value [2] was 367.33 u/L. The “ASPARTATE AMINOTRANSFERASE” value [2] was 88 u/L, the “BLOOD UREA NITROGEN” value [2] was 12.67 mg/dL and the “CARBON DIOXIDE” value [2] was 33.67 mmol/L. The CHLORIDE [2] was 97 MEQ/L, the CHOLESTEROL [2] was 67.5 mg/dL and the “CREATINE PHOSPHOKINASE” value [2] was 358.67 u/L. The CREATININE [2] was 0.14 mg/dL, the GLUCOSE [2] was 152.33 mg/dL and the “LACTATE DEHYDROGENASE” value [2] was 180 u/L. The LIPASE [2] was 10.5 u/L, the PHOSPHORUS [2] was 10.63 mg/dL and the POTASSIUM [2] was 5.99 MEQ/L. For the same compound, the SODIUM [2] was 141.85 MEQ/L, the “TOTAL BILIRUBIN” value [2] was 0.2 mg/dL and the “TOTAL PROTEIN” value [2] was 6.18 G/DL. For the same compound, the “URIC ACID” value [2] was 0.52 mg/dL, the “ABSOLUTE BASOPHIL” value [3] was 0 CELLS/uL and the “ABSOLUTE EOSINOPHIL” value [3] was 0 CELLS/uL. For the same compound, the “ABSOLUTE LYMPHOCYTE” value [3] was 14976.33 CELLS/uL, the “ABSOLUTE MONOCYTE” value [3] was 50 CELLS/uL and the “ABSOLUTE SEGMENTED NEUTROPHIL” value [3] was 1373.67 CELLS/uL. The BASOPHIL [3] was 0%, the EOSINOPHIL [3] was 0% and the “ERYTHROCYTE COUNT” value [3] was 5.24 x10E6/uL. The HEMATOCRIT [3] was 34.53%, the HEMOGLOBIN [3] was 13.33 G/DL and the “LEUKOCYTE COUNT” value [3] was 16.4 x10E3/uL. For the same compound, the LYMPHOCYTE [3] was 91.33%, the “MEAN CORPUSCULAR HEMOGLOBIN” value [3] was 25.5 pg and the “MEAN CORPUSCULAR HEMOGLOBIN CONCENTRATION” value [3] was 38.67 G/DL. The “MEAN CORPUSCULAR VOLUME” value [3] was 65.87 fL, the MONOCYTE [3] was 0.33% and the NEUTROPHIL [3] was 8.33%. For the same compound, the “NUCLEATED RED BLOOD CELLS” value [3] was 0.33 /100WBC, the “PLATELET COUNT” value [3] was 1013.33 x10E3/uL and the “ALANINE AMINOTRANSFERASE” value [3] was 52.67 u/L. For the same compound, the ALBUMIN [3] was 3.97 G/DL, the “ALKALINE PHOSPHATASE” value [3] was 324 u/L and the “ASPARTATE AMINOTRANSFERASE” value [3] was 77 u/L. For the same compound, the “BLOOD UREA NITROGEN” value [3] was 13 mg/dL, the “CARBON DIOXIDE” value [3] was 30 mmol/L and the CHLORIDE [3] was 98.33 MEQ/L. The CHOLESTEROL [3] was 80.67 mg/dL, the “CREATINE PHOSPHOKINASE” value [3] was 196 u/L and the CREATININE [3] was 0.11 mg/dL. The GLUCOSE [3] was 165 mg/dL, the “LACTATE DEHYDROGENASE” value [3] was 154 u/L and the LIPASE [3] was 9.33 u/L. It also gave a PHOSPHORUS [3] of 11.37 mg/dL, a POTASSIUM [3] of 6.42 MEQ/L and an SODIUM [3] of 143.1 MEQ/L. The “TOTAL BILIRUBIN” value [3] was 0.2 mg/dL, the “TOTAL PROTEIN” value [3] was 5.87 G/DL and the “URIC ACID” value [3] was 0.83 mg/dL. The “ABSOLUTE BASOPHIL” value [4] was 0 CELLS/uL, the “ABSOLUTE EOSINOPHIL” value [4] was 59.33 CELLS/uL and the “ABSOLUTE LYMPHOCYTE” value [4] was 8956 CELLS/uL. The “ABSOLUTE MONOCYTE” value [4] was 157 CELLS/uL, the “ABSOLUTE SEGMENTED NEUTROPHIL” value [4] was 561 CELLS/uL and the BASOPHIL [4] was 0%. The EOSINOPHIL [4] was 0.67%, the “ERYTHROCYTE COUNT” value [4] was 5.03 x10E6/uL and the HEMATOCRIT [4] was 33.47%. For the same compound, the HEMOGLOBIN [4] was 12.9 G/DL, the “LEUKOCYTE COUNT” value [4] was 9.73 x10E3/uL and the LYMPHOCYTE [4] was 91.67%. For the same compound, the “MEAN CORPUSCULAR HEMOGLOBIN” value [4] was 25.73 pg, the “MEAN CORPUSCULAR HEMOGLOBIN CONCENTRATION” value [4] was 38.57 G/DL and the “MEAN CORPUSCULAR VOLUME” value [4] was 66.63 fL. The MONOCYTE [4] was 1.67%, the NEUTROPHIL [4] was 6% and the “NUCLEATED RED BLOOD CELLS” value [4] was 0 /100WBC. The “PLATELET COUNT” value [4] was 1159 x10E3/uL, the “ALANINE AMINOTRANSFERASE” value [4] was 55.33 u/L and the ALBUMIN [4] was 3.87 G/DL. For the same compound, the “ALKALINE PHOSPHATASE” value [4] was 346 u/L, the “ASPARTATE AMINOTRANSFERASE” value [4] was 85.33 u/L and the “BLOOD UREA NITROGEN” value [4] was 13.33 mg/dL. For the same compound, the “CARBON DIOXIDE” value [4] was 33.67 mmol/L, the CHLORIDE [4] was 98.33 MEQ/L and the CHOLESTEROL [4] was 66.33 mg/dL. For the same compound, the “CREATINE PHOSPHOKINASE” value [4] was 375.33 u/L, the CREATININE [4] was 0.18 mg/dL and the GLUCOSE [4] was 143.67 mg/dL. For the same compound, the “LACTATE DEHYDROGENASE” value [4] was 176.67 u/L, the LIPASE [4] was 12.33 u/L and the PHOSPHORUS [4] was 11.3 mg/dL. For the same compound, the POTASSIUM [4] was 5.91 MEQ/L, the SODIUM [4] was 142.67 MEQ/L and the “TOTAL BILIRUBIN” value [4] was 0.13 mg/dL. For the same compound, the “TOTAL PROTEIN” value [4] was 5.9 G/DL and the “URIC ACID” value [4] was 0.37 mg/dL.
